From patent publication US4214091A, “Antibiotic No. 2-200 and process for producing thereof” (Chugai Seiyaku Kabushiki Kaisha, priority 1977, dated 1980)
≈ marks a conversion by molar mass, not a printed value. Where two headings read alike, the source gives them in different places.

Assays:
Experiment in all cases: MIC by agar plate dilution method
Assay type in all cases: cell-based
Escherichia coli No. 9 = conditions: NO.9, 24 h, 37° C., read-out: Minimum inhibitory concentration
Method: (§1) The test organisms were incubated by agar plate dilution method at 37° C. for 24 hours, after which their growth was observed. The test organisms were incubated on an NB medium (product of Eiken Kagaku) at 37° C. overnight, and each culture obtained was diluted 10^3 - to 10^4 -fold and stamped on an agar plate. The following agar plate media were used:
(§2) NA: nutrient agar (product of Eiken Kagaku)
(§3) NA+G6P: glucose-6-phosphoric acid (50 μg/ml) plus nutrient agar
(§4) Anti-3A: antibiotic medium No. 3 agar (product of Difco)
(§5) MHA: Mueller Hinton Agar (product of Eiken Kagaku)

[1] = system: Serratia marrcescens FU-111; conditions: FU111, 24 h, read-out: Minimum inhibitory concentration
Method: as §1, §2, §3, §4, §5

[2] = system: Pseudomonas aeruginosa G-75; conditions: 37° C., 24 hours
Method: as §1, §2, §3, §4, §5

[3] = system: Serratia marrcescens T-50; conditions: for MIC: Serratia
Method: as §1, §2, §3, §4, §5

Proteus mirabilis 1287 = conditions: 37° C., 24 hours
Method: as §1, §2, §3, §4, §5

Bacillus cereus = conditions: 37° C., 24 hours
Method: as §1, §2, §3, §4, §5

[4] = system: Pseudomonas aeruginosa J-272; conditions: 37° C., 24 hours
Method: as §1, §2, §3, §4, §5

Sarcina lutea = conditions: Micrococcus luteus
Method: as §1, §2, §3, §4, §5

Proteus mirabilis 9' = conditions: 24 h, 37° C., read-out: Minimum inhibitory concentration
Method: as §1, §2, §3, §4, §5

Salmonella paratyphi A = conditions: Salmonella enterica, 24 h
Method: as §1, §2, §3, §4, §5

[5] = system: Staphylococcus aureus 222; conditions: Staphylococcus aureus, 222, 24 h, 37° C., read-out: Minimum inhibitory concentration
Method: as §1, §2, §3, §4, §5

Shigella sonnei = conditions: 24 h, 37° C., read-out: Minimum inhibitory concentration
Method: as §1, §2, §3, §4, §5

[6] = system: Staphylococcus aureus JU-5; conditions: JU5, 24 h, 37° C., read-out: Minimum inhibitory concentration
Method: as §1, §2, §3, §4, §5

[7] = system: Pseudomonas aeruginosa M57740
Method: as §1, §2, §3, §4, §5

[8] = system: Bacillus subtilis PCI-219; conditions: 37° C., 24 hours
Method: as §1, §2, §3, §4, §5

[9] = system: Staphylococcus aureus A-5; conditions: A5, 24 h, 37° C., read-out: Minimum inhibitory concentration
Method: as §1, §2, §3, §4, §5

Salmonella typhi TANAKA = conditions: Salmonella enterica, 24 h
Method: as §1, §2, §3, §4, §5

Escherichia coli NIHJ = conditions: 24 h, 37° C., read-out: Minimum inhibitory concentration
Method: as §1, §2, §3, §4, §5

[10] = system: Salmonella enteritidis T-1; conditions: Salmonella enterica, 24 h, 37° C., read-out: Minimum inhibitory concentration
Method: as §1, §2, §3, §4, §5

Bacillus thuringensis = conditions: 24 h, 37° C., read-out: Minimum inhibitory concentration
Method: as §1, §2, §3, §4, §5

[11] = system: Staphylococcus aureus 209P; conditions: 24 h, 37° C., read-out: Minimum inhibitory concentration
Method: as §1, §2, §3, §4, §5

Shigella flexneri 2b = conditions: 24 h, 37° C., read-out: Minimum inhibitory concentration
Method: as §1, §2, §3, §4, §5

[12] = system: Staphylococcus epidermidis T0-3; conditions: T03, 24 h, 37° C., read-out: Minimum inhibitory concentration
Method: as §1, §2, §3, §4, §5

[13] = NA + G6P (50 μg/ml), 37° C., 24 hours
[14] = read-out: Minimum inhibitory concentration, Anti-3A, 37° C.
[15] = read-out: Minimum inhibitory concentration, MHA, 37° C.
[16] = read-out: Minimum inhibitory concentration, NA + G6P (50 μg/ml), 37° C.
[17] = read-out: Minimum inhibitory concentration, NA, 37° C.

## C=CC(C)=CC1(C)SC(=O)C(C)=C1O (single isomer, unassigned) [No. 2-200]
Escherichia coli No. 9; Anti-3A
  MIC: 100 µg/mL (≈ 476 µM)
Escherichia coli No. 9; MHA
  MIC: 50 µg/mL (≈ 238 µM)
Escherichia coli No. 9; NA + G6P (50 μg/ml)
  MIC: 50 µg/mL
Escherichia coli No. 9; NA
  MIC: 50 µg/mL (≈ 238 µM)
[1]; Anti-3A, 37° C., 24 hours
  MIC: 25 µg/mL (≈ 119 µM)
[1]; [13]
  MIC: 50 µg/mL
[1]; NA, 37° C., 24 hours
  MIC: 50 µg/mL (≈ 238 µM)
[1]
  MIC: 6.25 µg/mL (≈ 29.7 µM)
[2]; Anti-3A
  Minimum inhibitory concentration: 6.25 µg/mL (≈ 29.7 µM)
[2]; MHA
  Minimum inhibitory concentration: 6.25 µg/mL (≈ 29.7 µM)
[2]; NA + G6P (50 μg/ml)
  Minimum inhibitory concentration: 6.25 µg/mL
[2]; Pseudomonas aeruginosa, G75, NA, read-out: Minimum inhibitory concentration
  MIC: 6.25 µg/mL (≈ 29.7 µM)
[3]; [13]
  Minimum inhibitory concentration: 50 µg/mL
[3]; T50, 24 h, read-out: Minimum inhibitory concentration, Anti-3A, 37° C.
  MIC: 12.5 µg/mL (≈ 59.4 µM)
[3]; T50, 24 h, read-out: Minimum inhibitory concentration, MHA, 37° C.
  MIC: 1.56 µg/mL (≈ 7.42 µM)
[3]; T50, NA, 37° C., 24 hours, read-out: Minimum inhibitory concentration
  MIC: 50 µg/mL (≈ 238 µM)
Proteus mirabilis 1287; Anti-3A
  Minimum inhibitory concentration: 50 µg/mL (≈ 238 µM)
Proteus mirabilis 1287; MHA
  Minimum inhibitory concentration: 50 µg/mL (≈ 238 µM)
Proteus mirabilis 1287; NA + G6P (50 μg/ml)
  Minimum inhibitory concentration: 50 µg/mL
Proteus mirabilis 1287; Proteus mirabilis, 1287, NA, read-out: Minimum inhibitory concentration
  MIC: 50 µg/mL (≈ 238 µM)
Bacillus cereus; Anti-3A
  Minimum inhibitory concentration: 50 µg/mL (≈ 238 µM)
Bacillus cereus; Bacillus cereus, NA, read-out: Minimum inhibitory concentration
  MIC: 50 µg/mL (≈ 238 µM)
Bacillus cereus; MHA
  Minimum inhibitory concentration: 50 µg/mL (≈ 238 µM)
Bacillus cereus; NA + G6P (50 μg/ml)
  Minimum inhibitory concentration: 50 µg/mL
[4]; Anti-3A
  Minimum inhibitory concentration: > 400 µg/mL
[4]; MHA
  Minimum inhibitory concentration: > 400 µg/mL
[4]; NA + G6P (50 μg/ml)
  Minimum inhibitory concentration: > 400 µg/mL
[4]; Pseudomonas aeruginosa, J272, NA, read-out: Minimum inhibitory concentration
  MIC: > 400 µg/mL
Sarcina lutea; 24 h, read-out: Minimum inhibitory concentration, Anti-3A, 37° C.
  MIC: 12.5 µg/mL (≈ 59.4 µM)
Sarcina lutea; 24 h, read-out: Minimum inhibitory concentration, NA + G6P (50 μg/ml), 37° C.
  MIC: 12.5 µg/mL
Sarcina lutea; 24 h, read-out: Minimum inhibitory concentration, NA, 37° C.
  MIC: 12.5 µg/mL (≈ 59.4 µM)
Sarcina lutea; MHA, 37° C., 24 hours, read-out: Minimum inhibitory concentration
  MIC: 25 µg/mL (≈ 119 µM)
Proteus mirabilis 9'; Anti-3A
  MIC: 100 µg/mL (≈ 476 µM)
Proteus mirabilis 9'; MHA
  MIC: 200 µg/mL (≈ 951 µM)
Proteus mirabilis 9'; NA + G6P (50 μg/ml)
  MIC: 50 µg/mL
Proteus mirabilis 9'; NA
  MIC: 50 µg/mL (≈ 238 µM)
Salmonella paratyphi A; [14]
  MIC: 50 µg/mL (≈ 238 µM)
Salmonella paratyphi A; [15]
  MIC: 3.12 µg/mL (≈ 14.8 µM)
Salmonella paratyphi A; [16]
  MIC: 50 µg/mL
Salmonella paratyphi A; [17]
  MIC: 50 µg/mL (≈ 238 µM)
[5]; Anti-3A
  MIC: > 400 µg/mL
[5]; MHA
  MIC: 100 µg/mL (≈ 476 µM)
[5]; NA + G6P (50 μg/ml)
  MIC: ≥ 400 µg/mL
[5]; NA
  MIC: > 400 µg/mL
Shigella sonnei; Anti-3A
  MIC: 100 µg/mL (≈ 476 µM)
Shigella sonnei; MHA
  MIC: 50 µg/mL (≈ 238 µM)
Shigella sonnei; NA + G6P (50 μg/ml)
  MIC: 100 µg/mL
Shigella sonnei; NA
  MIC: 100 µg/mL (≈ 476 µM)
[6]; Anti-3A
  MIC: > 400 µg/mL
[6]; MHA
  MIC: 100 µg/mL (≈ 476 µM)
[6]; NA + G6P (50 μg/ml)
  MIC: ≥ 400 µg/mL
[6]; NA
  MIC: > 400 µg/mL
[7]; M57740, 24 h, read-out: Minimum inhibitory concentration, Anti-3A, 37° C.
  MIC: 1.56 µg/mL (≈ 7.42 µM)
[7]; M57740, 24 h, read-out: Minimum inhibitory concentration, NA + G6P (50 μg/ml), 37° C.
  MIC: 1.56 µg/mL
[7]; M57740, 24 h, read-out: Minimum inhibitory concentration, NA, 37° C.
  MIC: 1.56 µg/mL (≈ 7.42 µM)
[7]; M57740, MHA, 37° C., 24 hours, read-out: Minimum inhibitory concentration
  MIC: ≤ 0.78 µg/mL
[8]; Anti-3A
  Minimum inhibitory concentration: 50 µg/mL (≈ 238 µM)
[8]; Bacillus subtilis, PCI219, NA, read-out: Minimum inhibitory concentration
  MIC: 50 µg/mL (≈ 238 µM)
[8]; MHA
  Minimum inhibitory concentration: 50 µg/mL (≈ 238 µM)
[8]; NA + G6P (50 μg/ml)
  Minimum inhibitory concentration: 50 µg/mL
[9]; Anti-3A
  MIC: 25 µg/mL (≈ 119 µM)
[9]; MHA
  MIC: 50 µg/mL (≈ 238 µM)
[9]; NA + G6P (50 μg/ml)
  MIC: 25 µg/mL
[9]; NA
  MIC: 50 µg/mL (≈ 238 µM)
Salmonella typhi TANAKA; [14]
  MIC: 12.5 µg/mL (≈ 59.4 µM)
Salmonella typhi TANAKA; [15]
  MIC: 3.12 µg/mL (≈ 14.8 µM)
Salmonella typhi TANAKA; [16]
  MIC: 12.5 µg/mL
Salmonella typhi TANAKA; [17]
  MIC: 12.5 µg/mL (≈ 59.4 µM)
Escherichia coli NIHJ; Anti-3A
  MIC: 200 µg/mL (≈ 951 µM)
Escherichia coli NIHJ; MHA
  MIC: 50 µg/mL (≈ 238 µM)
Escherichia coli NIHJ; NA + G6P (50 μg/ml)
  MIC: 100 µg/mL
Escherichia coli NIHJ; NA
  MIC: 200 µg/mL (≈ 951 µM)
[10]; Anti-3A
  MIC: 3.12 µg/mL (≈ 14.8 µM)
[10]; MHA
  MIC: 3.12 µg/mL (≈ 14.8 µM)
[10]; NA + G6P (50 μg/ml)
  MIC: 6.25 µg/mL
[10]; NA
  MIC: 6.25 µg/mL (≈ 29.7 µM)
Bacillus thuringensis; Anti-3A
  MIC: 50 µg/mL (≈ 238 µM)
Bacillus thuringensis; MHA
  MIC: 50 µg/mL (≈ 238 µM)
Bacillus thuringensis; NA + G6P (50 μg/ml)
  MIC: 25 µg/mL
Bacillus thuringensis; NA
  MIC: 50 µg/mL (≈ 238 µM)
[11]; Anti-3A
  MIC: 25 µg/mL (≈ 119 µM)
[11]; MHA
  MIC: 50 µg/mL (≈ 238 µM)
[11]; NA + G6P (50 μg/ml)
  MIC: ≥ 50 µg/mL
[11]; NA
  MIC: > 50 µg/mL
Shigella flexneri 2b; Anti-3A
  MIC: 3.12 µg/mL (≈ 14.8 µM)
Shigella flexneri 2b; MHA
  MIC: 1.56 µg/mL (≈ 7.42 µM)
Shigella flexneri 2b; NA + G6P (50 μg/ml)
  MIC: 6.25 µg/mL
Shigella flexneri 2b; NA
  MIC: 6.25 µg/mL (≈ 29.7 µM)
[12]; Anti-3A
  MIC: 100 µg/mL (≈ 476 µM)
[12]; MHA
  MIC: 50 µg/mL (≈ 238 µM)
[12]; NA + G6P (50 μg/ml)
  MIC: 50 µg/mL
[12]; NA
  MIC: 50 µg/mL (≈ 238 µM)
